In PubChem BioAssay (NCI):
“And” between values parts separate entries of the source, which are not always exact repeats. Equal entries are not always repeated.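 Exposure lasted 48 hours, with cells grown in 96-well plates and compounds tested at five concentrations. Here, GI50 denotes the concentration required for 50% inhibition of growth. Definition used: TGI = concentration required for complete inhibition of growth.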

Experiments:
Experiment in all cases: inhibition of tumour cell growth, NCI panel, 48 h
CCRF-CEM leukemia = test system: CCRF-CEM leukemia
CAKI-1 renal = test system: CAKI-1 renal
SK-MEL-5 melanoma = test system: SK-MEL-5 melanoma
SF-268 CNS = test system: SF-268 CNS
TK-10 renal = test system: TK-10 renal
SK-OV-3 ovarian = test system: SK-OV-3 ovarian
SK-MEL-2 melanoma = test system: SK-MEL-2 melanoma
HCT-15 colon = test system: HCT-15 colon
A549 NSCLC = test system: A549 NSCLC
MDA-MB-435 = test system: MDA-MB-435
M14 melanoma = test system: M14 melanoma
SNB-19 CNS = test system: SNB-19 CNS
COLO 205 colon = test system: COLO 205 colon
BT-549 breast = test system: BT-549 breast

Row | Structure (SMILES) | TGI (CCRF-CEM leukemia) | TGI (CAKI-1 renal) | TGI (SK-MEL-5 melanoma) | TGI (SF-268 CNS) | TGI (TK-10 renal) | TGI (SK-OV-3 ovarian) | TGI (SK-MEL-2 melanoma) | TGI (HCT-15 colon) | TGI (A549 NSCLC) | TGI (MDA-MB-435) | TGI (M14 melanoma) | TGI (SNB-19 CNS) | TGI (COLO 205 colon) | GI50 (SF-268 CNS) | GI50 (SK-OV-3 ovarian) | GI50 (SK-MEL-2 melanoma) | GI50 (HCT-15 colon) | GI50 (COLO 205 colon) | TGI (BT-549 breast)
1 | O=C1c2cc3c(cc2CC12Cc1cc4c(cc1C2=O)CCC4)CCCC3 (stereo not drawn) | > 100 µM | > 100 µM | > 100 µM | > 100 µM | > 100 µM | > 100 µM | > 100 µM | > 100 µM | > 100 µM | > 100 µM | > 100 µM | > 100 µM | – | – | – | – | – | – | –
2 | COC(=O)C(=C/c1ccc(OC)cc1)/C(C(=O)O)=C(/C)c1ccccc1 | > 100 µM | > 100 µM | > 100 µM | – | > 100 µM | > 100 µM | > 100 µM | > 100 µM | > 100 µM | – | > 100 µM | > 100 µM | > 100 µM | – | – | – | – | – | –
3 | COc1cc2c(cc1OC)C(O)[C@H](Br)C(C)(C)O2 (stereo partly drawn) | > 100 µM | – | > 100 µM | > 100 µM | > 100 µM | > 100 µM | > 100 µM | > 100 µM | > 100 µM | – | > 100 µM | > 100 µM | > 100 µM | – | – | – | – | – | –
4 | O=c1[nH]cc(COCC(F)(F)C(F)(F)C(F)(F)C(F)F)c(=O)[nH]1 | > 100 µM | > 100 µM | > 100 µM | > 100 µM | > 100 µM | > 100 µM | > 100 µM | > 100 µM | > 100 µM | – | > 100 µM | > 100 µM | > 100 µM | – | – | – | – | – | –
5 | C=C1C(=O)O[C@H]2[C@H]1[C@@H](OC(=O)C=C(C)C)CC1=C[C@@H](C[C@@]3(C)O[C@@H]23)OC1=O | 1120 µM | 9.11 µM | 15 µM | 35.6 µM and 22.9 µM | – | 36.9 µM and 43.9 µM | 17.6 µM and 30 µM | 3.97 µM and 11.7 µM | 63 µM and 39.7 µM | – | – | 55.3 µM | 2.49 µM and 4.17 µM | 17.5 µM and 5.11 µM | 25 µM | 13 µM | 3.46 µM | 0.993 µM and 2.27 µM | –
6 | COc1ccc2c(c1)CN1C(=N2)CSC1c1cc([N+](=O)[O-])ccc1Cl (stereo not drawn) | – | > 100 µM | > 100 µM | > 100 µM | > 100 µM | > 100 µM | > 100 µM | > 100 µM | > 100 µM | > 100 µM | > 100 µM | > 100 µM | 92.4 µM | – | – | – | – | – | > 100 µM
7 | CCOC(=O)CC1c2ccc(O)cc2OC(=O)C1c1ccc([N+](=O)[O-])cc1 (stereo not drawn) | 62.1 µM | 94.5 µM | 29 µM | > 100 µM | 75.3 µM | 85.5 µM | 40.1 µM | > 100 µM | > 100 µM | 56.1 µM | 43.8 µM | > 100 µM | 33 µM | – | – | – | – | – | –
8 | Cn1ccc(C(=O)NCCOCCNC(=O)c2ccn(C)c(=O)c2O)c(O)c1=O | – | > 100 µM | > 100 µM | > 100 µM | > 100 µM | – | > 100 µM | > 100 µM | > 100 µM | > 100 µM | – | > 100 µM | > 100 µM | – | – | – | – | – | > 100 µM
9 | Cc1ccc2c(c1CCCC(C)(C)O)C(=O)C(=O)C(C(C)C)=C2O | > 100 µM | > 100 µM | > 100 µM | > 100 µM | > 100 µM | > 100 µM | > 100 µM | > 100 µM | > 100 µM | – | > 100 µM | > 100 µM | > 100 µM | – | – | – | – | – | –
10 | Nc1ccc(C(=O)NN2C(=O)C(Cl)C2c2ccccc2Cl)cc1 (stereo not drawn) | 6.67 µM | 26.9 µM | 29.5 µM | 15.2 µM | 30.1 µM | 29.6 µM | 24.5 µM | 10.2 µM | 27.8 µM | – | 25.9 µM | 30.6 µM | 28.1 µM | – | – | – | – | – | –
11 | O=C(O)c1ccc(NNc2cc(=O)[nH]c(=O)[nH]2)cc1 | > 100 µM | – | > 100 µM | > 100 µM | > 100 µM | > 100 µM | > 100 µM | > 100 µM | > 100 µM | – | > 100 µM | > 100 µM | > 100 µM | – | – | – | – | – | > 100 µM
12 | C=CCN1C[C@H](C)N([C@H](c2ccc(C(=O)N(CC)CCO)cc2)c2cccc(OC)c2)C[C@H]1C | – | > 100 µM | > 100 µM | > 100 µM | > 100 µM | > 100 µM | > 100 µM | > 100 µM | > 100 µM | > 100 µM | > 100 µM | > 100 µM | > 100 µM | – | – | – | – | – | > 100 µM
13 | CCCCCC(C[N+]1(C)CCOCC1)C(=O)/C=C/c1ccccc1 (stereo not drawn) | > 35.3 µM | 32.1 µM | 28.1 µM | – | 37.8 µM | > 88.6 µM | 29.5 µM | 25 µM | 62 µM | – | 25.9 µM | 24.5 µM | 35.9 µM | – | – | – | – | – | –
14 | C=CCn1c(=O)n(CC=C)c(=O)n(CC=C)c1=O | > 100 µM | – | > 100 µM | > 100 µM | > 100 µM | > 100 µM | > 100 µM | > 100 µM | > 100 µM | – | > 100 µM | > 100 µM | > 100 µM | – | – | – | – | – | –
15 | O=C1NC(=O)C(CCO)(c2ccccc2)C(=O)N1 | > 100 µM | – | > 100 µM | > 100 µM | – | > 100 µM | > 100 µM | > 100 µM | > 100 µM | – | – | > 100 µM | > 100 µM | – | – | – | – | – | –
16 | CC12CCC(C(=O)OC1=O)C2(C)C (stereo not drawn) | > 100 µM | – | – | > 100 µM | > 100 µM | > 100 µM | > 100 µM | > 100 µM | – | > 100 µM | > 100 µM | > 100 µM | > 100 µM | – | – | – | – | – | –
17 | CC1(C)c2ccccc2C(=O)C12CCC(=O)CC2 | > 100 µM | > 100 µM | – | > 100 µM | > 100 µM | > 100 µM | > 100 µM | > 100 µM | > 100 µM | – | > 100 µM | > 100 µM | > 100 µM | – | – | – | – | – | > 100 µM
18 | COc1cc(/C=C2\C[C@H]3[C@@H]4CC=C5C[C@@H](O)CC[C@]5(C)[C@H]4CC[C@]3(C)C2=O)cc(OC)c1OC | – | > 100 µM | 31.9 µM | > 100 µM | > 100 µM | > 100 µM | 65.4 µM | > 100 µM | > 100 µM | > 100 µM | 81.8 µM | > 100 µM | 54.9 µM | – | – | – | – | – | > 100 µM
